From patent US6469028B1, “Synthesis and use of retinoid compounds having negative hormone and/or anatgonist activities” (Allergan, Inc., priority 1995, dated 2002)

Experiments:
Assay in all cases: Holoreceptor transactivation assay
Assay type in all cases: cell-based
Set-up in all cases: expressed in transfected cells; host or cells: CV1 cells
RARα = target: T1, RARα (Homo sapiens, UniProt P10276); conditions: relative to all trans retinoic acid; read-out: Transactivation Assay Efficacy (% of RA activity) RARα
T1 sequence (P10276 1-462): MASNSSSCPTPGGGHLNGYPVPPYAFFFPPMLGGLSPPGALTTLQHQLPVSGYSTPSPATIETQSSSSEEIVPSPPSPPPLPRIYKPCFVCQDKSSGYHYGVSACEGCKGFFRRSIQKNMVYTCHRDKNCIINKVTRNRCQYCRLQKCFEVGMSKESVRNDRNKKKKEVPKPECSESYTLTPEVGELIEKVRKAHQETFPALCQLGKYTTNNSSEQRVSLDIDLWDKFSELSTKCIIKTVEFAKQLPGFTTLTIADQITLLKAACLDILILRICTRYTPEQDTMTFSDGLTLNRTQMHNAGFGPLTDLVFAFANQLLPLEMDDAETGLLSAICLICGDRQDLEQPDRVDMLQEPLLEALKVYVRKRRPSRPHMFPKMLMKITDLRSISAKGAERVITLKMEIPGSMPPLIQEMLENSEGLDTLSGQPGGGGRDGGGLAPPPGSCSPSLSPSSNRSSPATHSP
From the text: (§1) A holoreceptor transactivation assay and a ligand binding assay which measure the antagonist/agonist like activity of the compounds of the invention, or their ability to bind to the several retinoid receptor subtypes, respectively, are described in published PCT Application No. WO93/11755 (particularly on pages 30-33 and 37-41) published on Jun. 24, 1993, the specification of which is also incorporated herein by reference. A description of the holoreceptor transactivation assay is also provided below.
(§2) CV1 cells (5,000 cells/well) were transfected with an RAR reporter plasmid MTV-TREp-LUC (50 ng) along with one of the RAR expression vectors (10 ng) in an automated 96-well format by the calcium phosphate procedure of Heyman et al. Cell 68: 397-406. For RXR-α and RXR-γ transactivation assays, an RXR-responsive reporter plasmid CRBPII-tk-LUC (50 ng) along with the appropriate RXR expression vectors (10 ng) was used substantially as described by Heyman et al. above, and Allegretto et al. J. Biol. Chem. 268: 26625-26633. For RXR-β transactivation assays, an RXR-responsive reporter plasmid CPRE-tk-LUC ([…]) along with RXR-β expression vector ([…]) was used as described in above. These reporters contain DRI elements from human CRBPII and certain DRI elements from promotor, respectively (see Mangelsdorf et al. The Retinoids: Biology Chemistry and Medicine, pp. 319-349, Raven Press Ltd., New York and Heyman et al., cited above). A β-galactosidase (50 ng) expression vector was used as an internal control in the transfections to normalize for variations in transfection efficiency. The cells were transfected in triplicate for 6 hours, followed by incubation with retinoids for 36 hours, and the extracts were assayed for luciferase and […] activities. The detailed experimental procedure for holoreceptor transactivations has been described in Heyman et al. above, and Allegretto et al. cited above. The results obtained in this assay are expressed in EC50 numbers, as they are also in the chimeric receptor transactivation assay. The Heyman et al. Cell 68: 397-406, Allegretto et al. J. Biol. Chem. 268: 26625-26633, and Mangelsdorf et al. The Retinoids: Biology, Chemistry, and Medicine, pp. 319-349, Raven Press Ltd., New York, are expressly incorporated herein by reference. The results of ligand binding assay are expressed in Kd numbers. (See Cheng et al. Biochemical Pharmacology 22: 3099-3108, expressly incorporated herein by reference.)
(§3) A compound should not cause significant activation of a reporter gene through a given receptor subtype (RAR-α, RAR-β or RAR-γ) in the holoreceptor transactivation assay, in order to qualify as an RAR antagonist with utility in the present invention.

RARβ = target: T2, RARβ (Homo sapiens, UniProt P10826); conditions: relative to all trans retinoic acid; read-out: Transactivation Assay Efficacy (% of RA activity) RARβ
T2 sequence (P10826 1-448 isoform P10826-2): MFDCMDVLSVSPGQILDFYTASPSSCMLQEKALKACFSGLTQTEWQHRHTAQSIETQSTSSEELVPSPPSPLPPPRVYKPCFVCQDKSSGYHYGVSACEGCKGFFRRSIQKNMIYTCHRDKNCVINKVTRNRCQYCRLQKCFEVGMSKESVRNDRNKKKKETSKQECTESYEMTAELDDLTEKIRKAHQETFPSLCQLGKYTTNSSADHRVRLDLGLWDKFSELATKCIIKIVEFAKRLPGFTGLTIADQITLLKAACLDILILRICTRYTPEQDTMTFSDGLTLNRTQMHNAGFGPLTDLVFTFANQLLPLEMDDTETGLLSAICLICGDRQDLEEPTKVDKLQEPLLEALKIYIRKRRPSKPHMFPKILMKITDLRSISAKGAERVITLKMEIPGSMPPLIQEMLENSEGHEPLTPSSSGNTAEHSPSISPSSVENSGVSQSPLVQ
From the text: as §1, §2, §3

RARγ = target: T3, RARγ (Homo sapiens, UniProt P13631); conditions: relative to all trans retinoic acid; read-out: Transactivation Assay Efficacy (% of RA activity) RARγ
T3 sequence (P13631 1-454): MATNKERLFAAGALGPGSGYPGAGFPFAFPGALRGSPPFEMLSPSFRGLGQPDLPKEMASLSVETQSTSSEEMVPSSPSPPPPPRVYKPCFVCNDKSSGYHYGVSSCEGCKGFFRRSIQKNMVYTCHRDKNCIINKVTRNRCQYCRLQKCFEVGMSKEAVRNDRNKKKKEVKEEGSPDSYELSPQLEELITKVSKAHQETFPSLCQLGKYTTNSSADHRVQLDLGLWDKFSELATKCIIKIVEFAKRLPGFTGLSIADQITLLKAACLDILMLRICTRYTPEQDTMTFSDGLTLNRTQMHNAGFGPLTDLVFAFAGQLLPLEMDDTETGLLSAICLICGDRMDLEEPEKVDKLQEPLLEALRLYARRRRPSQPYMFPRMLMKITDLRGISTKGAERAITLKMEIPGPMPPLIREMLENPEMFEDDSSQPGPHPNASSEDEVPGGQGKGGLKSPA
From the text: as §1, §2, §3

Row | Emax (RARα) | Emax (RARβ) | Emax (RARγ) | SMILES
1 | 2% | 0% | 7% | Cc1ccc(C2=CCC(C)(C)c3ccc(/C=C/c4ccc(C(=O)O)cc4)cc32)cc1 [Compound 45]
2 | 4% | 5% | 3% | Cc1ccc(C2=CCC(C)(C)c3ccc(N=Nc4ccc(C(=O)O)cc4)cc32)cc1 [Compound 46b, 4-[(5,6-dihydro-5,5-dimethyl-8-(4-methylphenyl)-2-naphthalenyl)azo]-benzoic acid]
3 | 0% | 15% | 3% | CC(/C=C/C=C(\C)c1ccc2c(c1)C(c1ccc(C)cc1)=CCC2(C)C)=C\C(=O)O [Compound 52, (E,E,E)-3-methyl-7-(5,6-dihydro-5,5-dimethyl-8-(4-methylphenyl)-2-naphthalenyl)-2,4,6-octatrienoic acid]
4 | 2% | 2% | 0% | CC(C)(C)c1ccc(C2=CCC(C)(C)c3ccc(C#Cc4ccc(C(=O)O)cc4)cc32)cc1 [Compound 61, 4-[(5,6-Dihydro-5,5-dimethyl-8-(4-(1,1-dimethylethyl)phenyl)-2-naphthalenyl)ethynyl]benzoic acid]
5 | 2% | 2% | 7% | Cc1ccc(C2=CCC(C)(C)c3ccc(C(=S)Nc4ccc(C(=O)O)c(F)c4)cc32)cc1 [Compound 63, 2-fluoro-4-[[(5,6-dihydro-5,5-dimethyl-8-(4-methylphenyl)-2-naphthalenyl)thiocarbonyl]amino]-benzoic acid]
6 | 0% | 4% | 2% | Cc1ccc(C2=CCC(C)(C)c3cc(C(=O)C=Cc4ccc(C(=O)O)cc4)ccc32)cc1 [Compound 101, 4-[3-oxo-3-(7,8-dihydro-5-(4-methylphenyl)-8,8-dimethyl-2-naphthalenyl)-1-propenyl]-benzoic acid]
7 | 4% | 12% | 7% | CC1(C)CC=C(c2ccccc2)c2ccc(C(=O)C=Cc3ccc(C(=O)O)cc3)cc21 [Compound 103, 4-[3-oxo-3-(7,8-dihydro-5-phenyl-8,8-dimethyl-2-naphthalenyl)-1-propenyl]-benzoic acid]

Row | SMILES | Emax (RARα) | Emax (RARβ) | Emax (RARγ)
8 | Cc1ccc(C2=CCC(C)(C)c3ccc(C#Cc4ccc(C(=O)O)cc4)cc32)cc1 [Compound 60, 4-[(5,6-dihydro-5,5-dimethyl-8-(4-methylphenyl)-2-naphthalenyl)ethynyl]benzoic acid] | 0% | 1% | 4%
